Experimental data from PubChem BioAssay AID250 (DTP/NCI, 2004).
Several values for one entry are separate records, joined by “and”; a condition that tells them apart may be missing. Equal values may be shown once. Inconclusive results and toxic doses are left out.

Tested on: BDF1 mice, L1210 leukemia sc, survival T/C
Experiment: NCI In Vivo Anticancer Drug Screen. Data for tumor model L1210 Leukemia (subcutaneous) in B6D2F1 (BDF1) mice
Details: endpoint: median survival time, higher = longer survival
Procedure: The antitumor activity of compounds was measured in mice bearing transplantable tumors. Survival or tumor size were measured and the results are expressed as the measurement made in the treated group (T) divided by the measurement made in the vehicle treated control group (C). The tumor model used in this assay is L1210 Leukemia (subcutaneous) in B6D2F1 (BDF1) mice

[1] = dose: 3.0 mg/kg/injection, schedule: Q01DX Z (sc), vehicle: saline
[2] = dose: 5.0 mg/kg/injection, schedule: Q01DX Z (sc), vehicle: saline
[3] = dose: 8.4 mg/kg/injection, schedule: Q01DX Z (sc), vehicle: saline
[4] = dose: 14.0 mg/kg/injection, schedule: Q01DX Z (sc), vehicle: saline
[5] = dose: 65.0 mg/kg/injection, schedule: Q01DX Z (sc), vehicle: saline
[6] = dose: 14.0 mg/kg/injection, schedule: Q01DX Z (sc), vehicle: carboxymethylcellulose (CMC)
[7] = dose: 23.0 mg/kg/injection, schedule: Q01DX Z (sc), vehicle: carboxymethylcellulose (CMC)
[8] = dose: 39.0 mg/kg/injection, schedule: Q01DX Z (sc), vehicle: carboxymethylcellulose (CMC)
[9] = dose: 65.0 mg/kg/injection, schedule: Q01DX Z (sc), vehicle: carboxymethylcellulose (CMC)

N=[N+]=CC(=O)OCC(N)C(=O)O (configuration not stated)
T/C [1]: 105 % of control | T/C (dose: 4.0 mg/kg/injection, schedule: Q01DX Z (sc), vehicle: water): 110 % of control | T/C [2]: 110 % of control | T/C (dose: 6.72 mg/kg/injection, schedule: Q01DX Z (sc), vehicle: water): 110 % of control | T/C (dose: 8.0 mg/kg/injection, schedule: Q01DX Z (sc), vehicle: water): 172 % of control | T/C (dose: 8.0 mg/kg/injection, schedule: Q02DX Z (sc), vehicle: water): 100 % of control | T/C [3]: 110 % of control | T/C (dose: 11.2 mg/kg/injection, schedule: Q01DX Z (sc), vehicle: water): 110 % of control | T/C [4]: 120 % of control | T/C (dose: 16.0 mg/kg/injection, schedule: Q01DX Z (sc), vehicle: water): 168 % of control | T/C (dose: 16.0 mg/kg/injection, schedule: Q02DX Z (sc), vehicle: water): 100 % of control | T/C (dose: 31.1 mg/kg/injection, schedule: Q01DX Z (sc), vehicle: water): 120 % of control | T/C (dose: 32.0 mg/kg/injection, schedule: Q02DX Z (sc), vehicle: water): 100 % of control | T/C (dose: 64.0 mg/kg/injection, schedule: Q01DX Z (sc), vehicle: water): 118 % of control | T/C [5]: 100 % of control | T/C (dose: 86.1 mg/kg/injection, schedule: Q01DX Z (sc), vehicle: water): 110 % of control | T/C (dose: 128.0 mg/kg/injection, schedule: Q02DX Z (sc), vehicle: water): 100 % of control

O=C(O)c1cc(=O)[nH]c(=O)[nH]1
T/C [5]: 100 % of control | T/C (dose: 180.0 mg/kg/injection, schedule: Q01DX Z (sc), vehicle: saline): 100 % of control | T/C (dose: 300.0 mg/kg/injection, schedule: Q01DX Z (sc), vehicle: saline): 100 % of control

OCC1OC(n2cnc3c(Cl)ncnc32)C(O)C1O (configuration not stated)
T/C (dose: 39.0 mg/kg/injection, schedule: Q01DX Z (sc), vehicle: methylcellulose (MC)): 100 % of control | T/C (dose: 65.0 mg/kg/injection, schedule: Q01DX Z (sc), vehicle: methylcellulose (MC)): 100 % of control | T/C (dose: 108.0 mg/kg/injection, schedule: Q01DX Z (sc), vehicle: methylcellulose (MC)): 100 % of control | T/C (dose: 180.0 mg/kg/injection, schedule: Q01DX Z (sc), vehicle: methylcellulose (MC)): 100 % of control | T/C (dose: 300.0 mg/kg/injection, schedule: Q01DX Z (sc), vehicle: methylcellulose (MC)): 95 % of control and 100 % of control | T/C (dose: 500.0 mg/kg/injection, schedule: Q01DX Z (sc), vehicle: methylcellulose (MC)): 94 % of control and 105 % of control | T/C (dose: 833.0 mg/kg/injection, schedule: Q01DX Z (sc), vehicle: methylcellulose (MC)): 105 % of control

C=CC(CO)N1CC1 (configuration not stated)
T/C (dose: 1.08 mg/kg/injection, schedule: Q01DX Z (sc), vehicle: saline): 100 % of control | T/C (dose: 1.8 mg/kg/injection, schedule: Q01DX Z (sc), vehicle: saline): 100 % of control | T/C (dose: 1.8 mg/kg/injection, schedule: Q02DX Z (sc), vehicle: saline): 100 % of control | T/C [1]: 100 % of control | T/C (dose: 3.0 mg/kg/injection, schedule: Q02DX Z (sc), vehicle: saline): 105 % of control | T/C [2]: 90 % of control and 100 % of control | T/C (dose: 5.0 mg/kg/injection, schedule: Q02DX Z (sc), vehicle: saline): 100 % of control | T/C (dose: 5.0 mg/kg/injection, schedule: Q## X Z (sc), vehicle: saline): 100 % of control | T/C (dose: 7.8 mg/kg/injection, schedule: Q01DX Z (sc), vehicle: saline): 100 % of control | T/C (dose: 8.4 mg/kg/injection, schedule: Q01DX001 (sc), vehicle: saline): 100 % of control | T/C (dose: 8.4 mg/kg/injection, schedule: Q02DX Z (sc), vehicle: saline): 100 % of control | T/C (dose: 8.4 mg/kg/injection, schedule: Q## X Z (sc), vehicle: saline): 100 % of control | T/C (dose: 14.0 mg/kg/injection, schedule: Q01DX001 (sc), vehicle: saline): 100 % of control | T/C [4]: 100 % of control | T/C (dose: 14.0 mg/kg/injection, schedule: Q02DX Z (sc), vehicle: saline): 100 % of control | T/C (dose: 14.0 mg/kg/injection, schedule: Q## X Z (sc), vehicle: saline): 100 % of control | T/C (dose: 23.0 mg/kg/injection, schedule: Q01DX001 (sc), vehicle: saline): 100 % of control | T/C (dose: 23.0 mg/kg/injection, schedule: Q01DX Z (sc), vehicle: saline): 90 % of control and 110 % of control | T/C (dose: 23.0 mg/kg/injection, schedule: Q02DX Z (sc), vehicle: saline): 100 % of control | T/C (dose: 23.0 mg/kg/injection, schedule: Q## X Z (sc), vehicle: saline): 100 % of control | T/C (dose: 36.0 mg/kg/injection, schedule: Q01DX Z (sc), vehicle: saline): 105 % of control | T/C (dose: 37.0 mg/kg/injection, schedule: Q02DX Z (sc), vehicle: saline): 100 % of control | T/C (dose: 39.0 mg/kg/injection, schedule: Q01DX001 (sc), vehicle: saline): 110 % of control | T/C (dose: 39.0 mg/kg/injection, schedule: Q01DX Z (sc), vehicle: saline): 95 % of control and 100 % of control | T/C (dose: 39.0 mg/kg/injection, schedule: Q## X Z (sc), vehicle: saline): 100 % of control | T/C (dose: 65.0 mg/kg/injection, schedule: Q01DX001 (sc), vehicle: saline): 120 % of control | T/C (dose: 65.0 mg/kg/injection, schedule: Q02DX Z (sc), vehicle: saline): 100 % of control | T/C (dose: 65.0 mg/kg/injection, schedule: Q## X Z (sc), vehicle: saline): 120 % of control | T/C (dose: 108.0 mg/kg/injection, schedule: Q01DX001 (sc), vehicle: saline): 115 % of control | T/C (dose: 108.0 mg/kg/injection, schedule: Q## X Z (sc), vehicle: saline): 115 % of control

O=NN(CCCl)C(=O)N[C@H]1CCCC[C@@H]1Cl
T/C (dose: 3.0 mg/kg/injection, schedule: Q01DX Z (sc), vehicle: carboxymethylcellulose (CMC)): 111 % of control | T/C (dose: 5.0 mg/kg/injection, schedule: Q01DX Z (sc), vehicle: carboxymethylcellulose (CMC)): 111 % of control | T/C (dose: 8.4 mg/kg/injection, schedule: Q01DX Z (sc), vehicle: carboxymethylcellulose (CMC)): 211 % of control | T/C (dose: 11.3 mg/kg/injection, schedule: Q01DX Z (sc), vehicle: carboxymethylcellulose (CMC)): 668 % of control | T/C [6]: 336 % of control and 472 % of control | T/C (dose: 22.5 mg/kg/injection, schedule: Q01DX Z (sc), vehicle: carboxymethylcellulose (CMC)): 493 % of control | T/C (dose: 23.0 mg/kg/injection, schedule: Q01DX Z (oral), vehicle: carboxymethylcellulose (CMC)): 326 % of control | T/C [7]: 272 % of control and 336 % of control | T/C (dose: 39.0 mg/kg/injection, schedule: Q01DX Z (oral), vehicle: carboxymethylcellulose (CMC)): 189 % of control | T/C [8]: 278 % of control | T/C (dose: 45.0 mg/kg/injection, schedule: Q01DX Z (sc), vehicle: carboxymethylcellulose (CMC)): 300 % of control | T/C (dose: 65.0 mg/kg/injection, schedule: Q01DX Z (oral), vehicle: carboxymethylcellulose (CMC)): 163 % of control | T/C [9]: 194 % of control | T/C (dose: 90.0 mg/kg/injection, schedule: Q01DX Z (sc), vehicle: carboxymethylcellulose (CMC)): 150 % of control | T/C (dose: 180.0 mg/kg/injection, schedule: Q01DX Z (oral), vehicle: carboxymethylcellulose (CMC)): 115 % of control | T/C (dose: 300.0 mg/kg/injection, schedule: Q01DX Z (oral), vehicle: carboxymethylcellulose (CMC)): 105 % of control

CN(C)c1ccc(Nc2c3ccccc3nc3ccccc23)cc1
T/C (dose: 93.0 mg/kg/injection, schedule: Q01DX Z (sc), vehicle: saline): 104 % of control | T/C (dose: 155.0 mg/kg/injection, schedule: Q01DX Z (sc), vehicle: saline): 113 % of control | T/C (dose: 259.0 mg/kg/injection, schedule: Q01DX Z (sc), vehicle: saline): 109 % of control | T/C (dose: 432.0 mg/kg/injection, schedule: Q01DX Z (sc), vehicle: saline): 113 % of control

CN(C)CCNc1ccc([N+](=O)[O-])c2sc3ccccc3c(=O)c12
T/C [6]: 100 % of control | T/C [7]: 100 % of control | T/C [8]: 100 % of control | T/C [9]: 100 % of control and 111 % of control | T/C (dose: 108.0 mg/kg/injection, schedule: Q01DX Z (sc), vehicle: carboxymethylcellulose (CMC)): 100 % of control | T/C (dose: 180.0 mg/kg/injection, schedule: Q01DX Z (sc), vehicle: carboxymethylcellulose (CMC)): 111 % of control | T/C (dose: 300.0 mg/kg/injection, schedule: Q01DX Z (sc), vehicle: carboxymethylcellulose (CMC)): 105 % of control

CCCOC1=C(N2CC2)C(=O)C(OCCC)=C(N2CC2)C1=O
T/C [3]: 110 % of control | T/C [4]: 110 % of control | T/C (dose: 108.0 mg/kg/injection, schedule: Q01DX Z (sc), vehicle: saline): 115 % of control
